Source: patent US20220323406A1, “METHODS AND COMPOSITIONS FOR DIFFERENTIATING STEM CELLS” (Massachusetts Institute of Technology, priority 2019, published 2022)

How the values were obtained:
[1] = system: ENR+CD organoids (ISC to Paneth cell differentiation); experiment: Secondary (validation) screen: LYZ.NS basal lysozyme secretion, 2.5-D 384-well ENR+CD organoids; format: cell-based, mouse; conditions: 6-day ENR+CD, vs ENR+CD+DMSO
Experimental: (§1) Drugs were tested at a narrowed dose range around each treatment's identified optimal dose from the primary screen (4× below, 2× above and below).
(§2) High-throughput screening.
(§3) Secondary lysozyme secretion assay screen. Confirmatory secondary screening with primary hits was performed using the above 384-well plate method. The screen was conducted with 4-plate replicates with a base media of ENR+CD. Media was supplemented with compound at day 0 and day 3 (n=8 well replicates per dose) at four different doses: two-fold above, two-fold below, and four-fold below the optimal final dose for each respective treatment. Additionally, each plate carried a large number of ENR+DMSO or ENR+CD+DMSO (vehicle) control wells (n=100 for ATP, and n=25 for LYZ.NS and LYZ.S) for robust normalization. ATP, non-stimulated lysozyme activity and CCh-stimulated lysozyme activity was again measured and the collected data was again processed in a custom R-script, per primary screen with slight modification. Values were log10 transformed, and a plate-wise FC was calculated for each well based on the median value of ENR+CD+DMSO (vehicle) control wells to normalize plate to plate variability.

[2] = system: ENR+CD organoids (ISC to Paneth cell differentiation); experiment: Secondary (validation) screen: LYZ.S CCh-stimulated lysozyme secretion, 2.5-D 384-well ENR+CD organoids; format: cell-based, mouse; conditions: 6-day ENR+CD, vs ENR+CD+DMSO
Experimental: as §1, §2, §3

ENR+CD organoids [3] = experiment: Primary screen: ATP (CellTiter-Glo 3D, CTG) cell number/viability, 2.5-D 384-well ENR+CD organoids; conditions: primary screen; for Z.CTG: standard z score;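 for all read-outs here: compounds given at plating and again on day 3 over a 6-day differentiation from ENR+CV stem-cell-enriched precursors, ATP measured on day 6, plate median as control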
[4] = system: ENR+CD organoids (ISC to Paneth cell differentiation); experiment: Primary screen: basal (non-stimulated) lysozyme secretion LYZ.NS, 2.5-D 384-well ENR+CD organoid differentiation; format: cell-based, mouse
Description: as §2

ENR+CD organoids [5] = experiment: Secondary (validation) screen: ATP (CTG) assay, 2.5-D 384-well ENR+CD organoids; format: cell-based, mouse; conditions: 6-day ENR+CD, vs ENR+CD+DMSO
Experimental: as §1, §2, §3

[6] = system: ENR+CD organoids (ISC to Paneth cell differentiation); experiment: Primary screen: CCh-stimulated lysozyme secretion LYZ.S, 2.5-D 384-well ENR+CD organoid differentiation; format: cell-based, mouse; conditions: primary screen
Description: as §2

[7] = dose 0.08 uM, FC relative to plate median
[8] = dose 0.40 uM, FC relative to plate median
[9] = dose 2.00 uM, FC relative to plate median
[10] = dose 10.00 uM, FC relative to plate median

NC(=O)c1ccc(-c2nc(-c3ccccn3)c(-c3ccc4c(c3)OCO4)[nH]2)cc1 [SB431542]
Dose.FC.LYZ.NS ([1]; 0.06 uM): 0.089 log2 fold change | Z.LYZ.NS ([1]; 0.06 uM): 0.709 | repSSMD.LYZ.NS ([1]; 0.06 uM): 1.073 | Dose.FC.LYZ.NS ([1]; 0.24 uM): 0.105 log2 fold change | Z.LYZ.NS ([1]; 0.24 uM): 0.838 | repSSMD.LYZ.NS ([1]; 0.24 uM): 0.830 | Dose.FC.LYZ.NS ([1]; 0.48 uM): −0.016 log2 fold change | Z.LYZ.NS ([1]; 0.48 uM): −0.128 | repSSMD.LYZ.NS ([1]; 0.48 uM): −0.149 | Dose.FC.LYZ.NS ([1]; […]): 0.116 log2 fold change | Dose.FC.LYZ.S ([2]; 0.06 uM): 0.067 log2 fold change | Z.LYZ.S ([2]; 0.06 uM): 0.514 | repSSMD.LYZ.S ([2]; 0.06 uM): 0.855 | Dose.FC.LYZ.S ([2]; 0.24 uM): 0.027 log2 fold change | Z.LYZ.S ([2]; 0.24 uM): 0.211 | repSSMD.LYZ.S ([2]; 0.24 uM): 0.301 | Dose.FC.LYZ.S ([2]; 0.48 uM): −0.050 log2 fold change | Z.LYZ.S ([2]; 0.48 uM): −0.387 | repSSMD.LYZ.S ([2]; 0.48 uM): −0.449 | Dose.FC.LYZ.S ([2]; […]): 0.072 log2 fold change | increase of cell viability compared with LY215799 (ENR+CD organoids [3]): outperformed LY215799 | Dose.FC.CTG (ENR+CD organoids [3]; [7]): 0.380 log2 fold change | Z.CTG (ENR+CD organoids [3]; dose 0.08 uM): 0.907 | Dose.FC.CTG (ENR+CD organoids [3]; [8]): 0.473 log2 fold change | Z.CTG (ENR+CD organoids [3]; dose 0.40 uM): 1.130 | Dose.FC.CTG (ENR+CD organoids [3]; [9]): 0.316 log2 fold change | Z.CTG (ENR+CD organoids [3]; dose 2.00 uM): 0.754 | Dose.FC.CTG (ENR+CD organoids [3]; [10]): 0.155 log2 fold change | Z.CTG (ENR+CD organoids [3]; dose 10.00 uM): 0.370 | primary screen hit call (SSMD and z-scored FC cutoffs in both LYZ assays) ([4]; LYZ.NS and LYZ.S; 0.08-10 uM, 6 days ENR+CD): selected as a hit | performance on both LYZ assays compared with LY215799 ([4]; primary screen): performed almost identically to LY215799 | Dose.FC.LYZ.NS ([4]; primary screen, dose 0.08 uM, FC relative to plate median): 0.141 log2 fold change | Z.LYZ.NS ([4]; primary screen, dose 0.08 uM, standard z score): 1.225 | Dose.FC.LYZ.NS ([4]; primary screen, dose 0.40 uM, FC relative to plate median): 0.174 log2 fold change | Z.LYZ.NS ([4]; primary screen, dose 0.40 uM, standard z score): 1.514 | Dose.FC.LYZ.NS ([4]; primary screen, dose 2.00 uM, FC relative to plate median): 0.187 log2 fold change | Z.LYZ.NS ([4]; primary screen, dose 2.00 uM, standard z score): 1.632 | Dose.FC.LYZ.NS ([4]; primary screen, dose 10.00 uM, FC relative to plate median): 0.040 log2 fold change | Z.LYZ.NS ([4]; primary screen, dose 10.00 uM, standard z score): 0.346 | Dose.FC.CTG (ENR+CD organoids [5]; 0.06 uM): 0.160 log2 fold change | Z.CTG (ENR+CD organoids [5]; 0.06 uM): 1.439 | repSSMD.CTG (ENR+CD organoids [5]; 0.06 uM): 0.654 | Dose.FC.CTG (ENR+CD organoids [5]; 0.24 uM): 0.023 log2 fold change | Z.CTG (ENR+CD organoids [5]; 0.24 uM): 0.206 | repSSMD.CTG (ENR+CD organoids [5]; 0.24 uM): 0.141 | Dose.FC.CTG (ENR+CD organoids [5]; 0.48 uM): 0.083 log2 fold change | Z.CTG (ENR+CD organoids [5]; 0.48 uM): 0.752 | repSSMD.CTG (ENR+CD organoids [5]; 0.48 uM): 0.527 | Dose.FC.CTG (ENR+CD organoids [5]; […]): 0.120 log2 fold change | Dose.FC.LYZ.S [6, 7]: 0.135 log2 fold change | Dose.FC.LYZ.S [6, 8]: 0.309 log2 fold change | Dose.FC.LYZ.S [6, 9]: 0.223 log2 fold change | Dose.FC.LYZ.S [6, 10]: 0.126 log2 fold change

Cc1ccc(S(=O)(=O)NC(=O)NN2CC3CCCC3C2)cc1 (stereo not drawn) [Gliclazide]
Dose.FC.CTG (ENR+CD organoids [3]; dose 0.08 uM): 0.162 log2 fold change | Dose.FC.CTG (ENR+CD organoids [3]; dose 0.40 uM): 0.054 log2 fold change | Dose.FC.CTG (ENR+CD organoids [3]; dose 2.00 uM): 0.008 log2 fold change | Dose.FC.CTG (log2 fold change) (ENR+CD organoids [3]; dose 10.00 uM): −0.092 | Dose.FC.LYZ.NS ([4]; primary screen, dose 0.08 uM): 0.036 log2 fold change | Dose.FC.LYZ.NS ([4]; primary screen, dose 0.40 uM): 0.032 log2 fold change | Dose.FC.LYZ.NS ([4]; primary screen, dose 2.00 uM): 0.104 log2 fold change | Dose.FC.LYZ.NS (log2 fold change) ([4]; primary screen, dose 10.00 uM): −0.035 | Z.LYZ.NS (standard z score) ([4]; primary screen, dose 10.00 uM): −0.303 | Z.LYZ.NS ([4]; primary screen, standard z score, dose 0.08 uM): 0.313 | Z.LYZ.NS ([4]; primary screen, standard z score, dose 0.40 uM): 0.278 | Z.LYZ.NS ([4]; primary screen, standard z score, dose 2.00 uM): 0.909 | Dose.FC.LYZ.S ([6]; dose 0.08 uM): 0.058 log2 fold change | Dose.FC.LYZ.S ([6]; dose 0.40 uM): 0.086 log2 fold change | Dose.FC.LYZ.S ([6]; dose 2.00 uM): −0.017 log2 fold change | Dose.FC.LYZ.S (log2 fold change) ([6]; dose 10.00 uM): −0.060
